From ChEMBL document CHEMBL3580597 (J Med Chem, 2015)

How the values were obtained:
[1] = target: T1, Bromodomain-containing protein 2 (Homo sapiens, UniProt P25440); assay: Displacement of FAM-labeled ZBA248 from BRD2 BD2 (349 to 460 amino acid residues) (unknown origin) expressed in Rosetta2 DE3 cells after 30 mins by fluorescence polarization assay
[2] = target: T1, Bromodomain-containing protein 2; assay: Binding affinity to biotinylated BRD2 BD2 (349 to 460 amino acid residues) (unknown origin) expressed in Rosetta2 DE3 cells by bio-layer interferometry method
[3] = target: Bromodomain adjacent to zinc finger domain protein 2B (Homo sapiens, UniProt Q9UIF8); assay: Binding affinity to biotinylated BAZ2B (2054 to 2168 amino acid residues) (unknown origin) expressed in Rosetta2 DE3 cells by bio-layer interferometry method
Sequence of Bromodomain adjacent to zinc finger domain protein 2B (Q9UIF8 whole entry, the tested form may be a part): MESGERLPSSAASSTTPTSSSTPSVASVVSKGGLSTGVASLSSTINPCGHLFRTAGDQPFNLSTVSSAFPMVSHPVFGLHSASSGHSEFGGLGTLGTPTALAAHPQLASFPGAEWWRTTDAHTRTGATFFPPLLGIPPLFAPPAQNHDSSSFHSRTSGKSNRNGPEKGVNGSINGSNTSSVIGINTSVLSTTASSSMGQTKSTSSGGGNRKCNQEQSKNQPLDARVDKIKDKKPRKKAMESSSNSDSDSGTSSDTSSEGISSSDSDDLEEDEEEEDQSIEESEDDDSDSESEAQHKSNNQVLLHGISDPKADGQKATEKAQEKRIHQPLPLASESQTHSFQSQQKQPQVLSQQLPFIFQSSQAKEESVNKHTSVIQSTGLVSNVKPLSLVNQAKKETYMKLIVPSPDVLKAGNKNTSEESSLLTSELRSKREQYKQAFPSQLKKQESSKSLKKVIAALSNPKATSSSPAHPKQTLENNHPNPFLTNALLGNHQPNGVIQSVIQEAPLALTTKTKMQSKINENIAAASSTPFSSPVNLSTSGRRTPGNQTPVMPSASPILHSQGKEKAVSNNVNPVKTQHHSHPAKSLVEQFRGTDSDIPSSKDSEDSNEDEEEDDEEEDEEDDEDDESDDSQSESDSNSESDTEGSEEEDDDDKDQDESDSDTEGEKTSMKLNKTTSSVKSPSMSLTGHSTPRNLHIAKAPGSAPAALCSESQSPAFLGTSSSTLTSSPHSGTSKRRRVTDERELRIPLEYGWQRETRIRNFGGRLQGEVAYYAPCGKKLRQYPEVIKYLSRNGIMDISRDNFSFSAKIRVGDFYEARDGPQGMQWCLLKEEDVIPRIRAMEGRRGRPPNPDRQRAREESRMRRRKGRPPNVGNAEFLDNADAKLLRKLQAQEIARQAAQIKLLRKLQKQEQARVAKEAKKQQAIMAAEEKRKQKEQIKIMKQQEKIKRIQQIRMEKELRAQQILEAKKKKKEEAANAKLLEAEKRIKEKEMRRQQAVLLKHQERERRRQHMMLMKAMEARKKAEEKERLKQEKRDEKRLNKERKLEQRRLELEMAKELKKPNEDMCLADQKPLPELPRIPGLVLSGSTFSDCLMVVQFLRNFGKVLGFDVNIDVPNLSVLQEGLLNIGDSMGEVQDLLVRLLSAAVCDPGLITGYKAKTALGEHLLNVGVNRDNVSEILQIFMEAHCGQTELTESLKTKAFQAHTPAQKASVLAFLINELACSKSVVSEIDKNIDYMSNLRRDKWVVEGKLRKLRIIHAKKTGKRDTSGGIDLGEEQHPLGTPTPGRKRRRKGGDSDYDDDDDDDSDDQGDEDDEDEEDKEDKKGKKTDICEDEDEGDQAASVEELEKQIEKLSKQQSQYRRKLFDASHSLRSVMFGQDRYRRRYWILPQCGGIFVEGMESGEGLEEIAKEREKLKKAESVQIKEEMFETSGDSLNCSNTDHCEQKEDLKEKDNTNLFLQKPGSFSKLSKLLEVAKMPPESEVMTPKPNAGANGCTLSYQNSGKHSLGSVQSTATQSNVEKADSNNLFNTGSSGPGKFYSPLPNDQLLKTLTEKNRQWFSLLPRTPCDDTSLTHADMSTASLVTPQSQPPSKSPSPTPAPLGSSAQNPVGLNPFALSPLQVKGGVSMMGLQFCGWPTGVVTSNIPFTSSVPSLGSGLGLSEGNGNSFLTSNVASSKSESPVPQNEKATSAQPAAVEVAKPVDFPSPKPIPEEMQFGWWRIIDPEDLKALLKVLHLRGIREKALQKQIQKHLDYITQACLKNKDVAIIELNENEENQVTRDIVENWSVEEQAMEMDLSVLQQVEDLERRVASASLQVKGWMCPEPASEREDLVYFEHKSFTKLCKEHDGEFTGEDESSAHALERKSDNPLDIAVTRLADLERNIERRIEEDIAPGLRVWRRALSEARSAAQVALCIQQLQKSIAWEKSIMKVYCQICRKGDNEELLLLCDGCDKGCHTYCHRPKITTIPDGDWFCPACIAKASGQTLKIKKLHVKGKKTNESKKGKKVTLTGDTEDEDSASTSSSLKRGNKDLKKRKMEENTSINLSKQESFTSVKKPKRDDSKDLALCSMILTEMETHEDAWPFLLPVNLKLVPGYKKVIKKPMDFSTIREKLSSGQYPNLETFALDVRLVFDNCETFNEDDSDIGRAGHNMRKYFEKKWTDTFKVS

T1 sequence (P25440 whole entry, the tested form may be a part): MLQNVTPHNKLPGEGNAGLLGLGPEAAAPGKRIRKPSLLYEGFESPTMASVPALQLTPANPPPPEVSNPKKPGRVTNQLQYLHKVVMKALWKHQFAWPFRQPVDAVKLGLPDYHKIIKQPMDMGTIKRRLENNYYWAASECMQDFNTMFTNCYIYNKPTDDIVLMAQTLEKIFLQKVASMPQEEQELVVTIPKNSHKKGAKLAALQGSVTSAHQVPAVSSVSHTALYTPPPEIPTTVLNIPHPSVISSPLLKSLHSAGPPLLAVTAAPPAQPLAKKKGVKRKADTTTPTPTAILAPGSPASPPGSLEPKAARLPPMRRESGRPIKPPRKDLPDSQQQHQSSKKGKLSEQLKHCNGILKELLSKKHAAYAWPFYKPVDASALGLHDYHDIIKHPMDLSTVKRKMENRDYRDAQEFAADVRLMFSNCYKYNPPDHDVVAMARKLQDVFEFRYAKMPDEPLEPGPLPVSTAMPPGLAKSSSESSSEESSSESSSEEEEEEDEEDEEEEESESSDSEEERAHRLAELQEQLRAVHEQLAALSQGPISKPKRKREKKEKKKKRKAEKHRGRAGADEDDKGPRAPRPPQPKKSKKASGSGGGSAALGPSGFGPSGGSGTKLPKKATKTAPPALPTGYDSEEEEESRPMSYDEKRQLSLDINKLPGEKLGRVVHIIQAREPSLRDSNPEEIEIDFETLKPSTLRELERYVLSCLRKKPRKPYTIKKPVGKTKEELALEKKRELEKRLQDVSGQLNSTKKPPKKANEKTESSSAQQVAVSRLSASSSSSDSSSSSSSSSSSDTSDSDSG

- Ki [1]: 11.7 nM
- Kd [2]: 29.6 nM
- Kd [3]: > 10000 nM
SMILES: COc1cc2c(cc1-c1c(C)noc1C)[nH]c1ccnc(-c3c(C4CC4)n[nH]c3C)c12
